# Laboratory results from US20060270631A1, “Methods for the treatment and prevention of angiogenic diseases” (priority 2005, published 2006).
# Experiments:
# Format in all cases: cell-based
# [1] = tested on: human RECs; assay: Cytotoxicity assay (sulforhodamine) toward human RECs; conditions: 12 or 14 hours, serum-starved human RECs
# Protocol: FIG. 4. Toxicity of Compound II toward HRECs. Human RECs were serum-starved for 24 hours and then left untreated for 12 hours (▪) or incubated with 50 ng/mL VEGF (▴) for 14 hours in the presence of the indicated concentration of Compound II. These protocols were chosen to exactly match conditions in SK activity and proliferation experiments described below. After incubation, the percentages of cells that survived the treatment were determined. Values represent the mean i SD cell survival in triplicate samples in a typical experiment.
# Cytotoxicity assays. Cells were grown to confluence in 96-well tissue culture plates and serum-starved for 24 hours as described above. Cells were then treated with varying concentrations of Compound II for 12 hours (to parallel the SK activity assays described above) or with varying concentrations of Compound II and 50 ng/mL of VEGF for 14 hours (to parallel the proliferation assays described below). Cell survival was determined using the sulforhodamine assay (Skehan et al., J Natl Cancer Inst 82: 1107 (1990)).
# Since Compound II was the most efficacious inhibitor of SK in the RECs, this compound was used to characterize the biological effects of inhibiting SK in these cells. It was first necessary to determine the toxic effects of this compound toward cultures of RECs under conditions identical to subsequent signal studies. […]
# [2] = tested on: E-selectin and VCAM-1; assay: Western analysis of TNFα-induced E-selectin and VCAM-1 in human RECs; conditions: TNFα 100 ng/mL, 6 hours
# Protocol: Western Blotting. Protein concentrations were determined using the fluorescamine assay (Bohlen et al., Arch Biochem Biophys 155: 213 (1973)) with bovine serum albumin as the standard. Samples were normalized for equal amounts of protein per lane (100 μg), separated by sodium dodecylsulfate-polyacrylamide gel electrophoresis and electrotransferred to nitrocellulose membranes. For SK analyses, membranes were blocked with 5% nonfat milk in Tris-buffered saline with Tween 20 and probed with an anti-SK rabbit polyclonal antibody at a 1:50 dilution, washed and incubated with […] antibodies conjugated to horseradish peroxidase (1 hr in 3% nonfat milk). The blots were then washed 4 times for 5 minutes at room temperature, developed with SuperSignal development reagents (Pierce Biotechnology, Inc., Rockford, Ill.) and exposed to Kodak XAR film. […]
# Western analyses were conducted to evaluate the effects of Compound II on signaling proteins known to be regulated in endothelial cells by VEGF or TNFα. […] Cell lysates from cells treated with VEGF for 15 minutes were then analyzed for levels of phosphorylated ERK1/2 as a measure of signaling through the Ras-mediated proliferation pathway. Samples from cells treated with TNFα were analyzed for activation of NFκB, i.e. phosphoNFκB, and the down-stream proteins, cyclooxygenase-2 (Cox-2), E-selectin and VCAM-1. […]
# [3] = tested on: human RECs; assay: Matrigel microvessel (tube) formation by human RECs; conditions: control and VEGF-treated (50 ng/mL) cultures, 18 hours
# Protocol: Since VEGF-mediated angiogenesis and vascular leakage are critical processes in the pathology of diabetic retinopathy, we evaluated the effects of Compound II on the VEGF-induced formation of microvessels by human RECs. The basement membrane-like substrate, Matrigel (Becton-Dickinson, Franklin Lakes, N.J.), was used to induce vessel-like tube formation from human RECs as in previous studies with other cell types (Lee et al., Cancer Lett 208: 89 (2004)). Briefly, 300 μL of Matrigel was pipetted into 24 well plates and allowed to gel at 37° C. for 30 minutes. Human RECs were briefly trypsinized and plated onto the layer of Matrigel at an approximate density of 25,000 cells/cm^2. VEGF (50 ng/mL in PBS) with either DMSO or an SK inhibitor was added to the media immediately. After 18 hours at 37° C., images were digitally captured with a Retiga Ex camera with bright-field microscopy using a Nikon Eclipse TE300 microscope.
compound,measurement,setting,value
Oc1ccc(Nc2nc(-c3ccc(Cl)cc3)cs2)cc1 [Compound II],cell kill,[1]; concentrations up to approximately 16 μM,< 10%
same,cell kill,[1]; concentrations up to at least 65 μM,less than 25%
same,TNFα-induced up-regulation of E-selectin expression,[2],completely blocked
same,TNFα-induced up-regulation of VCAM-1 expression,[2],completely blocked
same,formation of networks and tubes,[3],marked reduction
